Reference: ChEMBL document CHEMBL1201862, “PubChem BioAssay data set” (2004)
The source made the active and inactive calls.

Tests used:
[1] = NIH-3T3 fibroblast cytotoxicity, dose response, cytotoxicity control, cell-based, fluorescence, Alamar Blue, secondary assay (AID 2327); type: functional;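 further: NIH-3T3 mouse fibroblasts cultured with fluconazole at 8 µg/mL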
HEK293 [2] = test: inhibition of NOD1-driven NF-kB reporter – cell-based, luminescence, uHTS, primary screen (AID 1578); type: functional; details: Homo sapiens
[3] = tested on: Streptococcus sp. 'group A'; test: Streptococcus pyogenes SK(-)GAS viability under kanamycin – luminescence, BacTiterGlo, confirmation, counter-screen for streptokinase expression inhibitor project, dose response (AID 1900); type: functional, organism-based
BJ [4] = test: BJ-TERT fibroblast viability loss – cell-based, RAS-independent, luminescence, dose response (AID 1933); type: functional; details: Homo sapiens
HEK293 [5] = test: cells; type: functional, cell-based; details: Homo sapiens
BJ [6] = test: cells; type: functional, cell-based; details: Homo sapiens
[7] = fluconazole-exposed Candida albicans growth modulators – fluorescence, retest, confirmation (AID 2467); type: functional, cell-based
HEK293 [8] = test: cells; type: functional, cell-based; details: Homo sapiens; remark: listed apart in the source
[9] = target: Nucleotide-binding oligomerization domain-containing protein 2 (Homo sapiens, UniProt Q9HC29); test: inhibition of NOD2-driven NF-kB reporter – cell-based, luminescence, uHTS, HEK293 (AID 1566); type: functional
Sequence of Nucleotide-binding oligomerization domain-containing protein 2 (Q9HC29 whole entry, the tested form may be a part): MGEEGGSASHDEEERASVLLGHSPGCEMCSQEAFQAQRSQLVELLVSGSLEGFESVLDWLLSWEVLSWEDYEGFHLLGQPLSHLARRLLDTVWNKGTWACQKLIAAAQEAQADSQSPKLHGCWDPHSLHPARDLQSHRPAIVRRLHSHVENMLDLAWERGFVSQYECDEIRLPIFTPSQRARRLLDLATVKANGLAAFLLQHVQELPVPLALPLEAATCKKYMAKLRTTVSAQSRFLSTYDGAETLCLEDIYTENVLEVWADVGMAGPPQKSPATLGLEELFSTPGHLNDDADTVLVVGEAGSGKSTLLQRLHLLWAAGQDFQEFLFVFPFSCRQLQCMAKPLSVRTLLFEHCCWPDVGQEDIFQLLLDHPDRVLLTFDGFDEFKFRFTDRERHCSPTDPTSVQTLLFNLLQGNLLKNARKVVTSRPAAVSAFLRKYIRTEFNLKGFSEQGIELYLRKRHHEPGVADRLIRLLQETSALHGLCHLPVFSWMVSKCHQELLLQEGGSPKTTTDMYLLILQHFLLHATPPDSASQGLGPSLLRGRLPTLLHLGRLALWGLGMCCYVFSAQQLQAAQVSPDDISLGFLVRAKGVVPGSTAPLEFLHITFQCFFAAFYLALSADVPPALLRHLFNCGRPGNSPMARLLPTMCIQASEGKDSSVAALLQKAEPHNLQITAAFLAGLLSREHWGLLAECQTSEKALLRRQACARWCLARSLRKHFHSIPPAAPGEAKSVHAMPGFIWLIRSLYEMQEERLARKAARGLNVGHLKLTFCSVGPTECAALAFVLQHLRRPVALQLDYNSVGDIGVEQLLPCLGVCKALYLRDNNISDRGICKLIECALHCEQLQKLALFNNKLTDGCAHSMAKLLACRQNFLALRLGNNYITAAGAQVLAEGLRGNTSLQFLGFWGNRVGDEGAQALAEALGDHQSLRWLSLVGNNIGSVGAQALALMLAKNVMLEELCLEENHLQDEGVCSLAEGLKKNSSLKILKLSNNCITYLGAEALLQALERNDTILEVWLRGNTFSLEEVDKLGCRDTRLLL

HEK293 [10] = test: NOD2 signaling inhibitors in MDP-stimulated cells, cell-based, uHTS, luminescence (AID 2001); type: functional; details: Homo sapiens
HEK293 [11] = test: cells; type: functional, cell-based; details: Homo sapiens; remark: listed apart in the source
[12] = target: T1, Serine/threonine-protein phosphatase (Candida dubliniensis (strain CD36 / CBS 7987 / NCPF 3949 / NRRLY-17841) (Yeast), UniProt B9W6M3); test: blockers of CaCl2-induced CDRE-lacZ signaling – S. cerevisiae, luminescence, secondary, dose response (AID 2388); type: functional, cell-based;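 further: yeast reporter cells carrying a calcineurin-responsive lacZ construct stimulated with calcium chloride; luminescent beta-galactosidase reporter signal in whole cells rather than isolated phosphatase activity; potency for inhibition where a drop in reporter signal means calcineurin blockade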
T1 sequence (B9W6M3 whole entry): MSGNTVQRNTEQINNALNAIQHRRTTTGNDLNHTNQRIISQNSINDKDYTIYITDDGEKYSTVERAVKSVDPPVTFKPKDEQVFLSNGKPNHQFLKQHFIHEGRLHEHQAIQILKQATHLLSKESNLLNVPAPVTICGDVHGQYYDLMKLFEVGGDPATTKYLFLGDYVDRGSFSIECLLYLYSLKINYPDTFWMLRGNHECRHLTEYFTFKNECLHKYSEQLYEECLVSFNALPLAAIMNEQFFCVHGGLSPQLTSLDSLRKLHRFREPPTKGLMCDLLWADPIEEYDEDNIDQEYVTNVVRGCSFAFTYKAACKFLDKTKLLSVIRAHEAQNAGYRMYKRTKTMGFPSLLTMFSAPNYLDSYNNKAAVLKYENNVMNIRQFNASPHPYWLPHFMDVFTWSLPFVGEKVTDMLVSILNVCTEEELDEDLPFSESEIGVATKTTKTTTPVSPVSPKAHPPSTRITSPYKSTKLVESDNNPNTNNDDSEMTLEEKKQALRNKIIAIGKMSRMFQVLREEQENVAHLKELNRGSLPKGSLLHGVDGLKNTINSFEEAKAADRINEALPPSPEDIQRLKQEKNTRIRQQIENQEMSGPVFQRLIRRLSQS

[13] = target: T2, Kappa-type opioid receptor (Homo sapiens, UniProt P41145); type: functional
T2 sequence (P41145 whole entry): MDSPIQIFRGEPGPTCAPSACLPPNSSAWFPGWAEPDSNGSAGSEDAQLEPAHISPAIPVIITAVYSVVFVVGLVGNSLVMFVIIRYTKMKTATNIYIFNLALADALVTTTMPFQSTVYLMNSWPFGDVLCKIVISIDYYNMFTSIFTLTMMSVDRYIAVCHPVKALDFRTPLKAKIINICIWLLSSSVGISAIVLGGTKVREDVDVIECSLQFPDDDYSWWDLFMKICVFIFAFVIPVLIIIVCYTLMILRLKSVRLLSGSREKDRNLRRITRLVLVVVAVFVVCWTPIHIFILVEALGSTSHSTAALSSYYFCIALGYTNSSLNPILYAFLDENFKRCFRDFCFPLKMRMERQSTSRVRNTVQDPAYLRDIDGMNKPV

Beta-galactosidase = Beta-galactosidase (Escherichia coli, UniProt Q8VNN2); type: functional
Sequence of Beta-galactosidase (Q8VNN2 whole entry): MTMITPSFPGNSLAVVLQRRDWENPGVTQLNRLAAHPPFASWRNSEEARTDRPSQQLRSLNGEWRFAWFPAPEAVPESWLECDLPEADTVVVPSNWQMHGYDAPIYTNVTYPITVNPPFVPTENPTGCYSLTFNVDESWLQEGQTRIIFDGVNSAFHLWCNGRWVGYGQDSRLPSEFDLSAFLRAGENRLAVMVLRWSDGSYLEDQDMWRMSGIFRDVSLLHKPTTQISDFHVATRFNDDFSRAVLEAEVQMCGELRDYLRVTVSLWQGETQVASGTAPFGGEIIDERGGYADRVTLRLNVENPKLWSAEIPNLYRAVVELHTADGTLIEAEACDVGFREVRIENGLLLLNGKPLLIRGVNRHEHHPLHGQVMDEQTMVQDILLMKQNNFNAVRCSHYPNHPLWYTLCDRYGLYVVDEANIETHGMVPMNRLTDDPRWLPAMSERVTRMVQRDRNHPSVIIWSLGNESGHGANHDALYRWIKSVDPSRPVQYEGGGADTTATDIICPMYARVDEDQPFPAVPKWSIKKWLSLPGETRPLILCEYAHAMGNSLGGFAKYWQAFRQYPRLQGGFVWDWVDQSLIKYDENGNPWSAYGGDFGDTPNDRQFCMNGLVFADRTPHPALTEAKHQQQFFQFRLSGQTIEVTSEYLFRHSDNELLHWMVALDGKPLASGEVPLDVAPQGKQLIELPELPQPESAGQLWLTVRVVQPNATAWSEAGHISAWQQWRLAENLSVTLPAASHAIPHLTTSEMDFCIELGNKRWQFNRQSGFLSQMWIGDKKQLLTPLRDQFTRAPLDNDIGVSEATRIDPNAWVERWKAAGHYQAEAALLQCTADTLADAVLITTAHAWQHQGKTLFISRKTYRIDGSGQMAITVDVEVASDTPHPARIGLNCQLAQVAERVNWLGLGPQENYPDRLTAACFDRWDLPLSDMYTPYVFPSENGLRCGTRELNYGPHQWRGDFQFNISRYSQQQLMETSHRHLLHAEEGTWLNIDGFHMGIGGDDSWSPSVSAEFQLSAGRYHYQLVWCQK

BJ [14] = test: BJ-TERT-LT-ST fibroblast viability loss – cell-based, RAS-independent, luminescence, dose response (AID 1935); type: functional; details: Homo sapiens;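 further: BJ fibroblasts immortalized with TERT plus LT and ST oncogenes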
[15] = target: T2, Kappa-type opioid receptor; type: functional; remark: listed apart in the source
[16] = DRD fibroblast viability loss – cell-based, non-viral oncogenic, luminescence, dose response (AID 1934); type: functional; details: Homo sapiens
Streptococcus = test: GAS UMAA2166 growth inhibition – luminescence, BacTiterGlo, counter-screen for streptokinase expression inhibitor project, dose response (AID 1915); type: functional, organism-based;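 further: potency for reduction of bacterial viability or growth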
[17] = target: Heat shock protein HSP 90-alpha (Homo sapiens, UniProt P07900); type: functional, organism-based
INS1 = test: INS-1E survival protection against cytokine death – cell-based, luminescence, retest, dose response (AID 449756); type: functional; details: Rattus norvegicus;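 further: cell death triggered by IL-1 beta plus TNF-alpha plus IFN-gamma mixture; protective hits raise ATP signal compared with cytokine alone wells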
[18] = target: ATP-dependent molecular chaperone HSP82 (Candida albicans (strain WO-1) (Yeast), UniProt C4YTQ8); test: steroid-induced GRE reporter decrease in yeast – S. cerevisiae, luminescence, Hsp90 inhibitor project, dose response (AID 2400); type: functional, cell-based;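 further: beta-galactosidase luminescence from glucocorticoid response element reporter as proxy for Hsp90 function; inhibitor potency where signal loss means Hsp90 inhibition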
Sequence of ATP-dependent molecular chaperone HSP82 (C4YTQ8 whole entry): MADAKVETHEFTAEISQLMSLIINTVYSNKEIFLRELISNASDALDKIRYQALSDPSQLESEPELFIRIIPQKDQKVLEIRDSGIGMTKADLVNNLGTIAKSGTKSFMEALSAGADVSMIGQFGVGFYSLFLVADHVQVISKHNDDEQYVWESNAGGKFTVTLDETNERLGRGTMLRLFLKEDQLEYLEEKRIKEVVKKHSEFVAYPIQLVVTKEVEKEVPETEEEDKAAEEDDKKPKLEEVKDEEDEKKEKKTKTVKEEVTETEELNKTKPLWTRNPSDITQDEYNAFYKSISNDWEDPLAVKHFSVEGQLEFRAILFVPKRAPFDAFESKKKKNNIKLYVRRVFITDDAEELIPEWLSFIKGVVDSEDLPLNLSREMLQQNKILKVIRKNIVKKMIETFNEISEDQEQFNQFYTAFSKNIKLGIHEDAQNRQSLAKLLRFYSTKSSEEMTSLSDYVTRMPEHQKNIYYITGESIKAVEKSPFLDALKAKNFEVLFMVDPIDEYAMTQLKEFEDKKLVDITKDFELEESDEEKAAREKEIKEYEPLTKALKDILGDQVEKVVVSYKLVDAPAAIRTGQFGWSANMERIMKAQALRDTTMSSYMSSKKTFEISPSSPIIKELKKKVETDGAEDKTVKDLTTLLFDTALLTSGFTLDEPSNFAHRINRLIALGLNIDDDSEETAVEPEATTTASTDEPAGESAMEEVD

[19] = decrease of insulin promoter-GFP reporter – imaging, high-content screening, mouse beta cells (AID 1628); type: functional; details: MIN6
[20] = MIN6 cell viability loss – mouse insulinoma, cytotoxicity control, dose response (AID 2122); type: functional;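 further: confirmatory high-throughput counterscreen run to flag cytotoxic compounds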
[21] = activation of miR-122 Renilla sensor silencing – cell-based, Huh7 psiCHECK-miR122, Renilla luciferase, cherry-picked, dose response (AID 651956); type: functional;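 further: huh7 hepatoma cells stably carrying a psiCHECK-2 miR-122 sensor plasmid; renilla luciferase signal reporting endogenous miR-122 activity after 48 h compound exposure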
[22] = general mammalian cell viability loss – inhibitor set, cherry-pick, set 2, cytotoxicity control for miR-122 modulator project, dose response (AID 720697); type: functional, cell-based
[23] = HEK-293T viability loss after treatment – luminescence, T-cell screen hits, cytotoxicity control for TCR NF-kB inhibitor project, dose response (AID 489026); type: functional, cell-based;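 further: cells exposed to compound about 14 hours before the viability readout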
[24] = target: T3, COUP transcription factor 2 (Homo sapiens, UniProt P24468); test: Luminescence-based cell-based high throughput dose response assay to identify inhibitors of COUP-TFII (NR2F2).; type: functional;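 further: HEK293 cells transiently cotransfected with COUP-TFII expression vector and reporter; luciferase reporter luminescence driven by COUP-TFII from the pX2-168 reporter plasmid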
T3 sequence (P24468 whole entry): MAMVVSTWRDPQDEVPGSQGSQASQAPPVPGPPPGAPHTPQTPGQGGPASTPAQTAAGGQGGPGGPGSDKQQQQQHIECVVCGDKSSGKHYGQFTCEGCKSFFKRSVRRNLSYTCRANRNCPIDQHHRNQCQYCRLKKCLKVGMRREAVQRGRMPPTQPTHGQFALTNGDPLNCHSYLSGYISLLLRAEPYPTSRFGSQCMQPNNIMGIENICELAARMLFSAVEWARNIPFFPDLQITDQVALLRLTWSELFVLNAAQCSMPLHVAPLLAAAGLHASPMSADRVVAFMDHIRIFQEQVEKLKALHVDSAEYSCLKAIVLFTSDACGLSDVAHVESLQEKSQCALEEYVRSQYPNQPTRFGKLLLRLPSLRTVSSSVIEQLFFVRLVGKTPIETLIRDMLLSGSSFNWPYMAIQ

Escherichia coli = test: microbe, parasite or virus in culture
[25] = target: T4, RNA-binding protein pos-1 (Caenorhabditis elegans, UniProt G5EF15); test: disruptors of C. elegans POS-1 RNA interaction – biochemical, fluorescence polarization, dose response (AID 1964);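 further: purified POS-1 fused to maltose binding protein made in E. coli; potency of compounds blocking POS-1 binding to fluorescent RNA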
T4 sequence (G5EF15 whole entry): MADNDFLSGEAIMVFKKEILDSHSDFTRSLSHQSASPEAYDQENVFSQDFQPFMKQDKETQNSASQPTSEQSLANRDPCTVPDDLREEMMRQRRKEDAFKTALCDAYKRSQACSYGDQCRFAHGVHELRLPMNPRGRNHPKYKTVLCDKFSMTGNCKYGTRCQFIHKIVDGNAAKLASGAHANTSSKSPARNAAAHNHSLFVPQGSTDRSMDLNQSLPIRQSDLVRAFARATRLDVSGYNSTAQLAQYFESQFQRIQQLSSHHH

[26] = target: T5, Zinc finger protein mex-5 (Caenorhabditis elegans, UniProt Q9XUB2); test: potency of MEX-5 RNA-binding blockers – biochemical, C. elegans, fluorescence polarization, dose response (AID 1960)
T5 sequence (Q9XUB2 whole entry): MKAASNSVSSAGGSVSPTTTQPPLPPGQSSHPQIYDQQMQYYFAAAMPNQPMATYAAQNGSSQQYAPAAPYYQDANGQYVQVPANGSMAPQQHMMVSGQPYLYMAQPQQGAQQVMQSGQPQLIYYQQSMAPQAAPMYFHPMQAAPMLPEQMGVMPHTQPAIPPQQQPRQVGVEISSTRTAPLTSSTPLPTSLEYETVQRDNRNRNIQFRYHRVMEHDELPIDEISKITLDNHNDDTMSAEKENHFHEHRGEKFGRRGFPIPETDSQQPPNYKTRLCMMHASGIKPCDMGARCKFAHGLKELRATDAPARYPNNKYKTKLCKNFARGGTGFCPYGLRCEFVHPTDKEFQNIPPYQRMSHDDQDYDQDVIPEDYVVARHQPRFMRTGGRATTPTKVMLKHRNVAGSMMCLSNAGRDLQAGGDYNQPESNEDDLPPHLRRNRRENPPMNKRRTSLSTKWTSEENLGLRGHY

[27] = target: DNA dC->dU-editing enzyme APOBEC-3A (Homo sapiens, UniProt P31941); test: Dose Response confirmation of small molecule APOBEC3A DNA Deaminase Inhibitors via a fluorescence-based single-stranded DNA deaminase assay. [Related pubchem assays (depositor defined):AID493011, AID493024]; type: functional
Sequence of DNA dC->dU-editing enzyme APOBEC-3A (P31941 whole entry): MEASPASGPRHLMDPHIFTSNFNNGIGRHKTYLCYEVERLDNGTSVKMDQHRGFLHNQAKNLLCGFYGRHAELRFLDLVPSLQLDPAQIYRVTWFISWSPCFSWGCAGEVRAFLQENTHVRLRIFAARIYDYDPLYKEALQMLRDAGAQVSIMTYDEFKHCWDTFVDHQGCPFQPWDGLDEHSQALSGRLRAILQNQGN

[28] = target: DNA dC->dU-editing enzyme APOBEC-3G (Homo sapiens, UniProt Q9HC16); type: functional;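 further: Dose-response counterscreen measuring inhibition of APOBEC3G DNA deaminase activity, run while confirming APOBEC3A inhibitors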
[29] = target: SWI/SNF-related matrix-associated actin-dependent regulator of chromatin subfamily A member 2 (Homo sapiens, UniProt P51531); test: Luminescence-based cell-based high throughput dose response assay to identify activators of the function of SWI/SNF related, matrix associated, actin dependent regulator of chromatin, subfamily a, member 2 (SMARCA2, BRM).; type: functional
Sequence of SWI/SNF-related matrix-associated actin-dependent regulator of chromatin subfamily A member 2 (P51531 whole entry): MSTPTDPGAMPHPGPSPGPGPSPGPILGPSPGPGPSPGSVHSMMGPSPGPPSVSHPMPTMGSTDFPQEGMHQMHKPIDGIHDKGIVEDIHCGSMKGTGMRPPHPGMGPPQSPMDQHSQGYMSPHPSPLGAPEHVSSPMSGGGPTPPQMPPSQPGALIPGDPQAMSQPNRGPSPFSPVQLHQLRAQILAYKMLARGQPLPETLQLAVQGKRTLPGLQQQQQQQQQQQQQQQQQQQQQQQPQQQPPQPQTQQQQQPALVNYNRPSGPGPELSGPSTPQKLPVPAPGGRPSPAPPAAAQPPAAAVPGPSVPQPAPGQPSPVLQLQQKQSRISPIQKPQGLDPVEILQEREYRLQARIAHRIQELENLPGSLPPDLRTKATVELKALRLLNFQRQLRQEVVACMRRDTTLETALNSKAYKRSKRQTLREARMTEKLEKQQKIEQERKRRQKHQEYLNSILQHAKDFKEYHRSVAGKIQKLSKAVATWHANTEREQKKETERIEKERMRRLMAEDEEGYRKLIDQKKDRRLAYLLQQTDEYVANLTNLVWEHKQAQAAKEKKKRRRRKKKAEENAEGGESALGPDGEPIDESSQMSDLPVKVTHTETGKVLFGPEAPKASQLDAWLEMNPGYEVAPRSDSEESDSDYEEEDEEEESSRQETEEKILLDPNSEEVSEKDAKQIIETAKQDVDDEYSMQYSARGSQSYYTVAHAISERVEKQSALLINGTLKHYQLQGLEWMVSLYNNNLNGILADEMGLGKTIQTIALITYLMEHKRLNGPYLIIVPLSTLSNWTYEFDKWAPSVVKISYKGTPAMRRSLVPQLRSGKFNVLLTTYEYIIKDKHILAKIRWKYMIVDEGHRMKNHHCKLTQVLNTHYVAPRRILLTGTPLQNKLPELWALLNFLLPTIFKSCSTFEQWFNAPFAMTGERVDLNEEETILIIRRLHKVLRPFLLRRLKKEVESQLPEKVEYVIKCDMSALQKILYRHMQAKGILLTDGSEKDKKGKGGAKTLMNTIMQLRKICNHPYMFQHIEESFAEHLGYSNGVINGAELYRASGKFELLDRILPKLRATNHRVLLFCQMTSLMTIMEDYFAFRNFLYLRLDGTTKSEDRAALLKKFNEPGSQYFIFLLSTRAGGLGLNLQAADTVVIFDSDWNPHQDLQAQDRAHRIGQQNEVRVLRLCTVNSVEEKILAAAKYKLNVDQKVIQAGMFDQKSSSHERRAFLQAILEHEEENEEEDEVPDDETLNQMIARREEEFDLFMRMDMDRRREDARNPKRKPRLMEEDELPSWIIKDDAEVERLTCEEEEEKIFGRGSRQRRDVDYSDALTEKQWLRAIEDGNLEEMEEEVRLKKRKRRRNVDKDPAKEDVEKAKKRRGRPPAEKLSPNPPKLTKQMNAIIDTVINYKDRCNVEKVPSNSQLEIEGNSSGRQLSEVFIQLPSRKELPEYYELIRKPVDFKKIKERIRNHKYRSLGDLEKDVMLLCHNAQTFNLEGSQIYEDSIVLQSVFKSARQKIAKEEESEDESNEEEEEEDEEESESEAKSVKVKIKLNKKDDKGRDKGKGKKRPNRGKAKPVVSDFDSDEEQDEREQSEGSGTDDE

[30] = Counterscreen for activators of the function of SWI/SNF related, matrix associated, actin dependent regulator of chromatin, subfamily a, member 2 (SMARCA2, BRM): Luminescence-based cell-based high throughput dose response assay to identify non-selective compounds using the VP16 reporter assay.; type: functional

COc1cccc(N=Nc2ccc3cccnc3c2O)c1
> 32 µM: IC50 [15]
inactive: EC50 (HEK293 [2]) > 20 µM | IC50 (HEK293 [8]) > 20 µM | EC50 [9] > 20 µM | IC50 (HEK293 [10]) 3.15 µM | IC50 (HEK293 [11]) > 20 µM | EC50 [12] > 180 µM
inconclusive: EC50 (BJ [4]) 6.69 µM | EC50 (BJ [6]) 16.9 µM | EC50 (BJ [14]) 3.73 µM
active: EC50 [1] 87.8 µM | EC50 [3] 68 nM | IC50 (HEK293 [5]) 5.21 µM | EC50 [7] 619 nM | IC50 [13] 5.92 µM | EC50 (Beta-galactosidase) 22 µM | EC50 [16] 10.5 µM | EC50 (Streptococcus) 2.53 µM | AC50 [17] 5.71 µM | AC50 (INS1) 2.26 µM | EC50 [18] 4.9 µM

COc1cc(-c2nnc3sc(C4CCCCC4)nn23)cc(OC)c1OC
active: IC50 [19] 0.981 µM | IC50 [20] 9.75 µM | AC50 [21] 55.5 µM | AC50 [22] 1.08 µM

CCCCn1c2c(c(=N)c3c1CCC3)CCC2
active: IC50 [19] 1.47 µM | IC50 [20] 1.97 µM
inactive: IC50 [23] > 80 µM | IC50 [24] 19.1 µM

COCCn1c(-c2cccc([N+](=O)[O-])c2)nc2c1c(=O)[nH]c(=O)n2Cc1ccccc1
inactive: AC50 (Escherichia coli) > 380 µM

CCSc1nnc(-c2ccc(C)cc2)c2ccccc12
active: EC50 [1] 17.2 µM | EC50 [7] 305 nM | EC50 [12] 24.7 µM | EC50 [18] 62.4 µM

Cc1ccc(N=Nc2[nH]c3ccccc3c2O)cc1
inconclusive: EC50 [26] 25.7 µM
inactive: EC50 [29] > 91.1 µM | EC50 [30] > 91.1 µM
active: EC50 [25] 16 µM | IC50 [27] 4.8 µM | IC50 [28] 7.69 µM

Cc1nnc(C)c2c(C)n(C(C)c3ccccc3)c(C)c12 (stereo not drawn)
active: IC50 [19] 2.5 µM | IC50 [20] 2.6 µM

CCO/C(O)=C1\C(C)=NC(=S)NC1c1cc(C)sc1C (stereo not drawn)
active: AC50 (Escherichia coli) 147 µM
